pIC50: −log10 of the molar value. Like-named read-outs stand apart in the source and are kept apart here. Values belong to the compound of their own block, whether it stands above or below them.
Assays:
[1] = Pharmacokinetic test in SD rats, intragastric 50 mg/kg of salts and crystalline forms; type: in vivo; details: 50 mg/kg (in free base)
Description: Number and gender: 20, males;
Twenty male SPF SD rats were randomly divided into 4 groups, fasted (free access to water) overnight, and then intragastrically administered with 50 mg/kg of the crystalline Form I of the mesylate of the compound of Formula I (Example 11), 50 mg/kg of the crystalline Form II of the mesylate of the compound of Formula I (Example 12), 50 mg/kg of the crystalline Form VIII of the mesylate of the compound of Formula I (Example 19) and 50 mg/kg of the hydrochloride salt of the compound of Formula I (Example 7), respectively (in basic group). Blood samples (0.2˜0.3 mL) were taken from the orbital of the rats at the blood collection time points 0.25 h, 0.5 h, 1 h, 2 h, 3 h, 4 h, 6 h, 8 h, 10 h, 24 h, 30 h and 48 h after administration. The whole blood collected was then placed in EDTA-K2 centrifuge tubes, stored at 4° C., and centrifuged for 10 min at a speed of 4000 rpm at 4° C. within 0.5 h to separate plasma. After the collection of all the plasma, it was stored at −20° C. within 1 h. Pharmacokinetic parameters (PK parameters) were calculated using DAS 3.2.1 software according to the non-compartment statistical moment theory, and the results are shown in Table 15.

IDH2 (R172K, 40-end) = molecular target: T1, IDH2 (R172K, 40-end) (Homo sapiens, UniProt P48735, R172K); assay: Inhibitory activity test against IDH2 (NADPH decrease, diaphorase/resazurin fluorescence); type: biochemical
T1 sequence (P48735 40-452 R172K): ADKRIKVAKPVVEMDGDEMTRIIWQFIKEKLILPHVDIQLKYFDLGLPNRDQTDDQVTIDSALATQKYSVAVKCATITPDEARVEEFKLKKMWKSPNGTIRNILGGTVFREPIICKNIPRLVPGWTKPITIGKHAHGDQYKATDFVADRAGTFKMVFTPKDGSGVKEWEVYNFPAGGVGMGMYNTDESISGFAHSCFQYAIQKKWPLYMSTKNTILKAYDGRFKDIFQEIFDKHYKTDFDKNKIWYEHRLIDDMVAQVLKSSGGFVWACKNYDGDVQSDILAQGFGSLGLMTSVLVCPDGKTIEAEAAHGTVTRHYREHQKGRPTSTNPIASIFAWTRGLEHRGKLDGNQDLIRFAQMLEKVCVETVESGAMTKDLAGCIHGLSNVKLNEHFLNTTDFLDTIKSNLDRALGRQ
Description: The inhibitory activity of the compound of the present application against IDH2 (R172K, 40-end) was determined by using the following method.
The inhibitory activity of a compound against IDH2 (R172K, 40-end) was determined by the decrease of a helper factor NADPH (reduced coenzyme II). The test compound was pre-incubated with an enzyme and NADPH, and then a reaction was initiated by the addition of a-KG, and performed for 120 minutes under a linear condition. Then, the reaction was terminated by the addition of diaphorase (lipoamide dehydrogenase) and the corresponding substrate resazurin. Diaphorase terminated the IDH2m reaction by decreasing the available helper factor NADPH, which oxidized NADPH to NADP (oxidized coenzyme II), and reduced resazurin to highly fluorescent resorufin. The amount of remaining helper factor NADPH after a specific reaction time was quantified via an easily detectable fluorophore.
Specifically, 2.5 μl of a 3-fold gradient diluted test compound was added to a 384-well plate, and then 5 μl of a reaction buffer (20 mM Tris-HCl, PH7.5; 150 mM NaCl; 10 mM MgCl2; 10 mM MnCl2; 0.4 mg/ml BSA and 2 mM DTT) containing 80 nM IDH2 (R172K, 40-end) and 40 μM NADPH was added. Then, the resulting test mixture was incubated for 120 minutes at a temperature of 23° C., and then 2.5 μl of the reaction buffer containing 4 mM a-KG was added to initiate the reaction. After incubating for 120 minutes at room temperature, 5 μl of a termination mixture (0.4 U/ml diaphorase and 40 μM resazurin) prepared with the reaction buffer was added to convert resazurin to resorufin to determine the remaining NADPH.

[2] = tested on: relapsed and refractory AML; details: cited from earlier work
[3] = Stability test of various salts, high temperature and high humidity (Chinese Pharmacopoeia 2010, Part II, Appendix XIX C); type: physicochemical; details: for Purity before test: before high temperature and high humidity test
Description: The stability of the various acid addition salts of the compound of Formula I were tested according to the method described in the Chinese Pharmacopoeia, 2010 edition, Part II, Appendix XIX C.

[4] = Hygroscopicity test of various salts (Chinese Pharmacopoeia 2010, Part II, Appendix XIX J); type: physicochemical; details: HR = 80% ± 2
Description: The various acid addition salts of the compound of Formula I were tested according to “Guiding Principles for Drug Hygroscopicity Test” described in the Chinese Pharmacopoeia, 2010 edition, Part II, Appendix XIX J. The increased weights by hygroscopy of the samples were calculated respectively, and the results are shown in Table 11.

[5] = Pharmacokinetic test in rats, single intragastric dose of 5 mg/kg; type: in vivo; details: male rats
Description: Healthy male adult rats (7-9 weeks old) were used, each group of animals (3 male rats) was intragastrically administered once at a single dose of 5 mg/kg. The animals in the intragastric administration group were fasted overnight before this study. The fasting time period was from 10 hours before administration to 4 hours after administration.
Blood samples were taken at 0.25, 0.5, 1, 2, 4, 6, 8 and 24 h after administration. The animals were anesthetized with isoflurane using a small animal anesthesia machine, and then 0.3 mL whole blood samples were taken from the fundus venous plexus. The blood samples were placed in heparin anticoagulant tubes, and centrifuged for 5 min at 4° C. and 4000 rpm. The resulting plasma samples were transferred to centrifuge tubes, and stored at −80° C. until analysis.
Verified liquid chromatography-tandem mass spectrometry (LC-MS/MS) method was used to analyze the plasma samples. Plasma concentration-time data of individual animals were analyzed using WinNonlin (Professional Edition, version 6.3; Pharsight Company) software. The non-compartmental model was introduced for concentration analysis. The pharmacokinetic parameters (PK parameters) of the compounds were calculated.

[6] = listed as The crystalline Form II of the mesylate of the compound of Formula I, 50 mg/kg
[7] = listed as The crystalline Form VIII of the mesylate of the compound of Formula I, 50 mg/kg
[8] = male, SD, rat, plasma, po, 50 mg/kg

SMILES: CC(C)(C)ONc1nc(Nc2ccnc(C(F)(F)F)c2)nc(-c2cccc(C(F)(F)F)n2)n1.CS(=O)(=O)O [The mesylate (Example 12), 4-(tert-butoxyamino)-6-(6-(trifluoromethyl)pyridin-2-yl)-N-(2-(trifluoromethyl)pyridin-4-yl)-1,3,5-triazin-2-amine methanesulfonic acid salt]
AUC(0-t) [1, 6]: 42249 ng·h/mL
AUC(0-∞) [1, 6]: 43976 ng·h/mL
Cmax [1, 6]: 2102 ng/mL
MRT(0-t) [1, 6]: 15.0 h
T1/2 [1, 6]: 9.53 h
Tmax [1, 6]: 8.80 h

SMILES: CC(C)(O)CNc1nc(Nc2ccnc(C(F)(F)F)c2)nc(-c2cccc(C(F)(F)F)n2)n1 [AG-221, Enasidenib]
pIC50 (IDH2 (R172K, 40-end)): 7.17
complete remission rate (CR) [2]: up to 27%
overall response rate (ORR) [2]: up to 41%
effective patients who insist on the treatment for at least 6 months ([2]; effective patients): 76%
effective patients with a stable condition ([2]; effective patients): 44%

SMILES: CC(C)(C)ONc1nc(Nc2ccnc(C(F)(F)F)c2)nc(-c2cccc(C(F)(F)F)n2)n1.Cc1ccc(S(=O)(=O)O)cc1 [The p-toluenesulfonate (Example 9)]
Purity after high temperature and high humidity test [3]: 97.63%
Purity before test [3]: 98.79%
Increased Weights by Hygroscopy [4]: 0.7%

SMILES: CC(C)(C)ONc1nc(Nc2ccnc(C(F)(F)F)c2)nc(-c2cccc(C(F)(F)F)n2)n1 [The compound of Formula I, 4-(tert-butoxyamino)-6-(6-(trifluoromethyl)pyridin-2-yl)-N-(2-(trifluoromethyl)pyridin-4-yl)-1,3,5-triazin-2-amine]
inhibitory activity compared with AG-221 (in words) (IDH2 (R172K, 40-end); IDH2 (R172K, 40-end)): better inhibitory activity than AG-221
pIC50 (IDH2 (R172K, 40-end); IDH2 (R172K, 40-end), 80 nM enzyme, 40 μM NADPH, read-out: IC50): 7.49
half-life (in words) [5]: long half-life
plasma concentration compared with AG-221 at the same dosage (in words) [5]: higher than AG-221

SMILES: CC(C)(C)ONc1nc(Nc2ccnc(C(F)(F)F)c2)nc(-c2cccc(C(F)(F)F)n2)n1.CS(=O)(=O)O [4-(tert-butoxyamino)-6-(6-(trifluoromethyl)pyridin-2-yl)-N-(2-(trifluoromethyl)pyridin-4-yl)-1,3,5-triazin-2-amine methanesulfonic acid salt]
Purity after high temperature and high humidity test [3]: 99.22%
Purity before test [3]: 98.82%
Increased Weights by Hygroscopy [4]: 1.0%
AUC(0-t) [1, 7]: 42249 ng·h/mL
AUC(0-∞) [1, 7]: 43976 ng·h/mL
Cmax [1, 7]: 2102 ng/mL
MRT(0-t) [1, 7]: 15.0 h
T1/2 [1, 7]: 9.53 h
Tmax [1, 7]: 8.80 h
AUC(0-inf) [1, 8]: 47400 ng·h/mL
half-life [1, 8]: 10.4 h
AUC(0-t) ([1]; male, SD, rat, plasma, po, 50 mg/kg, read-out: AUC(0-t)): 43900 ng·h/mL
Cmax ([1]; male, SD, rat, plasma, po, 50 mg/kg, read-out: Cmax): 1730 ng/mL
MRT last ([1]; male, SD, rat, plasma, po, 50 mg/kg, read-out: MRT(0-t)): 16.5 h
Tmax ([1]; male, SD, rat, plasma, po, 50 mg/kg, read-out: Tmax): 6.6 h

The remaining lines, values ahead:

Purity after high temperature and high humidity test [3]: 99.62%
Purity before test [3]: 98.85%
Increased Weights by Hygroscopy [4]: 0.9%
AUC(0-t) [1]: 48570.9 ng·h/mL
AUC(0-∞) [1]: 55252.1 ng·h/mL
Cmax [1]: 1642 ng/mL
MRT(0-t) [1]: 18.02 h
T1/2 [1]: 13.67 h
Tmax [1]: 10.6 h
SMILES: CC(C)(C)ONc1nc(Nc2ccnc(C(F)(F)F)c2)nc(-c2cccc(C(F)(F)F)n2)n1.Cl [The hydrochloride salt (Example 7)]

Purity after high temperature and high humidity test [3]: 93.58%
Purity before test [3]: 99.30%
Increased Weights by Hygroscopy [4]: 1.3%
SMILES: CC(C)(C)ONc1nc(Nc2ccnc(C(F)(F)F)c2)nc(-c2cccc(C(F)(F)F)n2)n1.O=S(=O)(O)O [The sulfate (Example 8)]

Increased Weights by Hygroscopy [4]: 2.2%
SMILES: CC(C)(C)ONc1nc(Nc2ccnc(C(F)(F)F)c2)nc(-c2cccc(C(F)(F)F)n2)n1.O=C(O)/C=C\C(=O)O [Maleate (Example 10)]

Source: patent US11021464B2, “Crystalline forms of 4-(tert-butoxyamino)-6-(6-(trifluoromethyl)pyridin-2-yl)-N-(2-(trifluoromethyl)pyridin-4-yl)-1,3,5-triazin-2-amine methanesulfonic acid salt” (CHIA TAI TIANQING PHARMACEUTICAL GROUP CO., LTD., priority 2017, dated 2021)
